Measurements from patent publication US11339171B2, “MDM2 inhibitors” (Gan & Lee Pharmaceuticals, priority 2017, dated 2022).
Where “and” joins values, the source holds several entries; their conditions need not be identical. Equal values may be shown once. Read-outs that look alike come from different tables or passages of the source.

Experiments:
[1] = system: human osteosarcoma cell line SJSA-1; assay: Inhibition of proliferation of human osteosarcoma cell line SJSA-1 (DAPI staining, In Cell Analyzer); details: Homo sapiens, SJSA-1, 72 h, read-out: IC50 (nM), inhibitory activity on proliferation of human osteosarcoma cell line SJSA-1, SJSA-1, incubated 72 h
MDM2 = biological target: T1, MDM2 (Homo sapiens, UniProt Q00987); assay: Inhibition test of MDM2-P53 (GST-MDM2, Biotin-P53, Anti-GST-Tb, SA-XL665); type: binding
T1 construct: made in house
T1 sequence (Q00987 whole entry): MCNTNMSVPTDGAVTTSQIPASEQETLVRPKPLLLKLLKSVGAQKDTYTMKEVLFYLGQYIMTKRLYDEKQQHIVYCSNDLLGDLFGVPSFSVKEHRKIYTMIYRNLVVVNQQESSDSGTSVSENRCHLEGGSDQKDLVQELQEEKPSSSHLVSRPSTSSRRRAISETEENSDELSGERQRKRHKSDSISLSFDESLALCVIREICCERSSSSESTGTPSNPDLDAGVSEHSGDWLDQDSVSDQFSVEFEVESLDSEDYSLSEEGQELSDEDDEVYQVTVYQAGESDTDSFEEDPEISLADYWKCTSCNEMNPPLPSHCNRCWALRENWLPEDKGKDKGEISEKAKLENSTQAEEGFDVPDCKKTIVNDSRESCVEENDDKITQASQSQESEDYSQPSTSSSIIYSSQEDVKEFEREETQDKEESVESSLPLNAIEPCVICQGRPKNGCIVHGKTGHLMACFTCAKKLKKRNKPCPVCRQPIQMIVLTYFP
How it was run: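 Binding was measured by TR-FRET with GST-MDM2 at 4 nM final in PBS with 0.1% BSA, 5 mM DTT and 1 mM AEBSF. Compounds were tested as twelve-point 5-fold dilutions and incubated with the detection mix for 90 min at 25 °C with shaking before plate-reader reading and curve fitting.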

[2] = Pharmacokinetics in ICR mice after intravenous and intragastric administration; type: in vivo; details: for MRT last: read-out: MRT(0-t); for MRT inf: read-out: MRT(0-∞); for Vd: read-out: Vz; for half-life: read-out: t1/2 (converted)
How it was run: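 Male ICR mice, fasted overnight, n=3 per route, given 2 mg/kg IV or 5 mg/kg intragastric in 5% DMSO/40% PEG400/55% (10% HP-β-CD in saline). Plasma drug levels measured by LC-MS/MS after protein precipitation (LLOQ 1 ng/mL); noncompartmental AUC, t1/2, MRT, Cmax, Tmax, F, Vz, CL derived.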

[3] = IV 2 mg/kg, ICR mice, individual animal, 2 mg/kg
[4] = PO 5 mg/kg, ICR mice, individual animal, 5 mg/kg
[5] = male, ICR, mouse, plasma, iv, 2 mg/kg, IV 2 mg/kg, ICR mice, Mean
[6] = male, ICR, mouse, plasma, iv, 2 mg/kg, IV 2 mg/kg, ICR mice, individual animal
[7] = male, ICR, mouse, plasma, po, 5 mg/kg, PO 5 mg/kg, ICR mice, Mean
[8] = male, ICR, mouse, plasma, po, 5 mg/kg, PO 5 mg/kg, ICR mice, individual animal

Question: With COc1ccc(-c2nc3c(n2C(C)C)[C@@]2(C(=O)Nc4cc(Cl)ccc42)N(c2cc(Cl)ccc2C)C3=O)c(OC)c1 [Example S-9, (S)-6-chloro-5′-(5-chloro-2-methylphenyl)-2′-(2,4-dimethoxyphenyl)-3′-isopropyl-3′H-spiro[dihydroindole-3,4′-pyrrolo[3,4-d]imidazole]-2,6′(5′H)-dione] as the compound, how does the IC50 [1] read?
Answer: 7.39 nM

Question: What about the IC50 (MDM2) of the same compound?
Answer: 2.38 nM

Question: What about the “AUC(0-t)” value [2, 3] of the same compound?
Answer: 4107.04 ng·h/mL and 3334.44 ng·h/mL

Question: What about the “AUC(0-∞)” value [2, 3] of the same compound?
Answer: 4214.93 ng·h/mL and 3452.37 ng·h/mL

Question: What about the CL [2, 3] of the same compound?
Answer: 7.9083 mL/min/kg and 9.6552 mL/min/kg

Question: What about the Cmax [2, 3] of the same compound?
Answer: 1643.99 ng/mL and 1403.26 ng/mL

Question: And the “MRT(0-t)” value [2, 3]?
Answer: 1.47 h

Question: What about the “MRT(0-∞)” value [2, 3] of the same compound?
Answer: 1.63 h and 1.68 h

Question: What about the Vz [2, 3] of the same compound?
Answer: 0.79338 L/kg and 1.05516 L/kg

Question: What about the t1/2 [2, 3] of the same compound?
Answer: 1.16 h and 1.26 h

Question: And the “F*” value ([2]; PO 5 mg/kg vs IV 2 mg/kg, ICR mice)?
Answer: 79.30%

Question: What about the “AUC(0-t)” value [2, 4] of the same compound?
Answer: 8692.39 ng·h/mL and 6976.33 ng·h/mL

Question: And the “AUC(0-∞)” value [2, 4]?
Answer: 8911.44 ng·h/mL and 7048.92 ng·h/mL

Question: And the Cmax [2, 4]?
Answer: 2009.05 ng/mL and 1914.07 ng/mL

Question: And the “MRT(0-t)” value [2, 4]?
Answer: 2.60 h and 2.68 h

Question: And the “MRT(0-∞)” value [2, 4]?
Answer: 2.78 h and 2.75 h

Question: What about the Tmax [2, 4] of the same compound?
Answer: 1.00 h

Question: And the t1/2 [2, 4]?
Answer: 1.44 h and 1.22 h

Question: And the AUC(0-inf) [2, 5]?
Answer: 3830 ng·h/mL

Question: And the clearance [2, 5]?
Answer: 8.76 mL/min/kg

Question: What about the AUC(0-t) ([2]; male, ICR, mouse, plasma, iv, 2 mg/kg, IV 2 mg/kg, ICR mice, Mean, read-out: AUC(0-t)) of the same compound?
Answer: 3700 ng·h/mL

Question: What about the Cmax ([2]; male, ICR, mouse, plasma, iv, 2 mg/kg, IV 2 mg/kg, ICR mice, Mean, read-out: Cmax) of the same compound?
Answer: 1440 ng/mL

Question: And the MRT last [2, 5]?
Answer: 1.51 h

Question: What about the MRT inf [2, 5] of the same compound?
Answer: 1.73 h

Question: What about the Tmax ([2]; male, ICR, mouse, plasma, iv, 2 mg/kg, IV 2 mg/kg, ICR mice, Mean, read-out: Tmax) of the same compound?
Answer: 0.083 h

Question: What about the Vd [2, 5] of the same compound?
Answer: 0.968 L/kg

Question: And the half-life [2, 5]?
Answer: 1.27 h

Question: And the AUC(0-inf) [2, 6]?
Answer: 3830 ng·h/mL

Question: What about the clearance [2, 6] of the same compound?
Answer: 8.7 mL/min/kg

Question: And the AUC(0-t) ([2]; male, ICR, mouse, plasma, iv, 2 mg/kg, IV 2 mg/kg, ICR mice, individual animal, read-out: AUC(0-t))?
Answer: 3650 ng·h/mL

Question: What about the Cmax ([2]; male, ICR, mouse, plasma, iv, 2 mg/kg, IV 2 mg/kg, ICR mice, individual animal, read-out: Cmax) of the same compound?
Answer: 1270 ng/mL

Question: What about the MRT last [2, 6] of the same compound?
Answer: 1.58 h

Question: What about the MRT inf [2, 6] of the same compound?
Answer: 1.88 h

Question: And the Tmax ([2]; male, ICR, mouse, plasma, iv, 2 mg/kg, IV 2 mg/kg, ICR mice, individual animal, read-out: Tmax)?
Answer: 0.08 h

Question: And the Vd [2, 6]?
Answer: 1.05 L/kg

Question: And the half-life [2, 6]?
Answer: 1.4 h

Question: What about the AUC(0-inf) [2, 7] of the same compound?
Answer: 7510 ng·h/mL

Question: And the AUC(0-t) ([2]; male, ICR, mouse, plasma, po, 5 mg/kg, PO 5 mg/kg, ICR mice, Mean, read-out: AUC(0-t))?
Answer: 7330 ng·h/mL

Question: And the Cmax ([2]; male, ICR, mouse, plasma, po, 5 mg/kg, PO 5 mg/kg, ICR mice, Mean, read-out: Cmax)?
Answer: 1760 ng/mL

Question: What about the MRT last [2, 7] of the same compound?
Answer: 2.64 h

Question: What about the MRT inf [2, 7] of the same compound?
Answer: 2.82 h

Question: What about the Tmax ([2]; male, ICR, mouse, plasma, po, 5 mg/kg, PO 5 mg/kg, ICR mice, Mean, read-out: Tmax) of the same compound?
Answer: 1.33 h

Question: And the half-life [2, 7]?
Answer: 1.41 h

Question: What about the AUC(0-inf) [2, 8] of the same compound?
Answer: 6560 ng·h/mL

Question: And the AUC(0-t) ([2]; male, ICR, mouse, plasma, po, 5 mg/kg, PO 5 mg/kg, ICR mice, individual animal, read-out: AUC(0-t))?
Answer: 6320 ng·h/mL

Question: And the Cmax ([2]; male, ICR, mouse, plasma, po, 5 mg/kg, PO 5 mg/kg, ICR mice, individual animal, read-out: Cmax)?
Answer: 1370 ng/mL

Question: And the MRT last [2, 8]?
Answer: 2.65 h

Question: And the MRT inf [2, 8]?
Answer: 2.92 h

Question: And the Tmax ([2]; male, ICR, mouse, plasma, po, 5 mg/kg, PO 5 mg/kg, ICR mice, individual animal, read-out: Tmax)?
Answer: 2 h

Question: What about the half-life [2, 8] of the same compound?
Answer: 1.57 h

Question: What about the AUC(0-t) ([2]; male, ICR, mouse, plasma, po, 5 mg/kg, oral intragastric administration 5 mg/kg, read-out: AUC0-t) of the same compound?
Answer: 7330 ng·h/mL
